Inconclusive results are not listed. Calls of active or inactive are those of the source. No rule for the calls is given here.
Tested on: C. albicans CaCi-8 + fluconazole, Alamar Blue growth, 48 h
Test: resistant C. albicans growth inhibition with fluconazole, dose response, CaCi-8 strain, Alamar Blue fluorescence (AID 2423)

Cc1ccc(-n2c(Cc3ccccc3)n[nH]c2=S)c(C)c1
EC50: 803 nM

CC(=O)NC(c1ccc(C)cc1)c1cc([N+](=O)[O-])c2cccnc2c1O (stereo unspecified)
EC50: 201 nM

COc1ccc(-c2nc(-c3ccncc3)no2)cc1OC
EC50: 7540 nM

CCOc1ccccc1NC(=O)c1cc(S(=O)(=O)N2CCC3(CC2)OCCO3)ccc1F
EC50: > 16000 nM (inactive)

CCCCN(C)S(=O)(=O)c1ccc(C(=O)Nc2nnc(-c3cccs3)o2)cc1
EC50: > 15000 nM (inactive)

O=C(NCCCc1ccccc1)Nc1cccc(Cl)c1
EC50: 11200 nM

Cc1sc(NC(=O)c2ccc(Br)s2)c(C(N)=O)c1C
EC50: 952 nM

Cc1ccc(/C=N/NC(=O)C2=NNC(c3ccccc3)(c3ccccc3)C2)c(O)c1
EC50: > 16000 nM (inactive)

O=S(=O)(Cc1ccccc1)N1CCc2ccccc21
EC50: 10900 nM

Cc1ccc(SCC(=O)Nc2ccc3c(c2)C(=O)N(C)C3=O)cc1
EC50: > 15000 nM (inactive)

O=c1[nH]n2c(C(F)(F)F)cc(C3CC3)nc2c1N=Nc1ccccc1
EC50: 4250 nM

Cc1ccc2[nH]c(C)c(/C=C/c3cc[n+](C)cc3)c2c1
EC50: 2910 nM

CCCNC(=O)c1ccc2c(=O)c(O)c(-c3cccc(Br)c3)[nH]c2c1
EC50: 3040 nM

O=C(O)c1ccc(NC(=S)NC(=O)c2ccc(-c3ccccc3)cc2)cc1
EC50: 3350 nM

C/C(=N\N1C(=O)CSC1=S)c1ccc(Br)cc1
EC50: 11900 nM

NC(=O)c1ccc(Nc2nnc(-c3ccc(O)cc3)c3ccccc23)cc1
EC50: 7930 nM

O=C(CCc1ccccc1)NNC(=S)NC(=O)c1ccccc1
EC50: 3130 nM

CN=c1scc(-c2cccs2)n1/N=C/c1ccc(O)c(O)c1O
EC50: 14500 nM

CC/C(=N/NC(=O)c1ccccc1O)c1c(C)[nH]n(-c2ccccc2)c1=O
EC50: 754 nM

CCc1nn(CCCC(=O)NCc2ccc(C)cc2)c(=O)c2cc3occc3n12
EC50: > 16000 nM (inactive)

CCN1/C(=C/c2ccc3cc(C)ccc3[n+]2CC)Sc2ccc3sccc3c21
EC50: < 120 nM

CC[n+]1c(C=C2C=C(C)OC(C)=C2)sc2ccccc21
EC50: 2080 nM

COc1cc([N+](=O)[O-])cc(/C=N/NC(=O)c2cc(-c3ccccc3)nc3ccccc23)c1O
EC50: 1540 nM

COc1cc(C2C(C#N)=C(N)N(c3ccc(F)cc3)C3=C2S(=O)(=O)CC3)ccc1O (stereo unspecified)
EC50: > 16000 nM (inactive)

Cc1ccc(C(=O)NC(=O)OCCn2c(C)cnc2[N+](=O)[O-])cc1
EC50: > 16000 nM (inactive)

CC(OC(=O)c1oc2ccccc2c1COc1ccccc1)C(N)=O (stereo unspecified)
EC50: > 16000 nM (inactive)

CC(C)CCN1C(=O)c2ccc(C(=O)Nc3ccc(Br)cc3C(=O)O)cc2C1=O
EC50: 1270 nM

Oc1c(C(Nc2nc3ccccc3s2)c2ccco2)ccc2cccnc12 (stereo unspecified)
EC50: 1980 nM

CCn1c(/C=C/c2ccc([N+](=O)[O-])o2)nc2ccccc2c1=O
EC50: < 120 nM

N#C/C(=C\c1ccc(N2CCOCC2)cc1)c1ccccc1
EC50: 492 nM

Cc1cc(C)n(-c2nc3ccccc3c(=O)n2OCC#N)n1
EC50: 456 nM

CC(=O)N(Cc1ccc(F)cc1)C1=C(NCCc2ccccc2)C(=O)c2ccccc2C1=O
EC50: 330 nM

COc1ccc(-c2cc(-c3c(O)c(OC)c4occc4c3OC)[nH]n2)cc1
EC50: > 15000 nM (inactive)

COc1ccccc1/C=C1\SC(=S)N(NS(=O)(=O)c2ccccc2)C1=O
EC50: 1110 nM

CCCCCCSc1nnc2[nH]c(=O)cc(N)n12
EC50: 1150 nM

O=C(NNC(=O)c1cc2ccccc2cc1O)NC1CCCCC1
EC50: 13600 nM

CC(C)(C)C(=O)NC(=S)NNC(=O)c1sc2ccccc2c1Cl
EC50: 360 nM

O=C(Nc1cccc(-c2cn3ccccc3n2)c1)c1cccc(Cl)c1
EC50: 715 nM

Cc1c(CCOC(=O)C23CC4(C)CC(C)(CC(C)(C4)C2)C3)sc[n+]1CC(=O)c1ccccc1
EC50: > 15000 nM (inactive)

O=C1NC(=O)/C(=C\c2ccc(Br)o2)S1
EC50: 1720 nM

COc1ccc2c(c1)c(/C=C/c1cc[n+](C)cc1)cn2C
EC50: 5950 nM

O=C1/C(=C/c2cccnc2)CCc2c1[nH]c1ccccc21
EC50: 1240 nM

COc1cnc(-c2ccccn2)nc1Sc1ccccc1Cl
EC50: > 15000 nM (inactive)

CCOC(=O)CSc1ccc(C(=O)N2CCN(C)CC2)cc1[N+](=O)[O-]
EC50: > 16000 nM (inactive)

O=C(Nc1nnc(-c2ccncc2)o1)c1ccc2ccccc2c1
EC50: 1440 nM

O=C(Oc1c(Cl)cc(Cl)c2cccnc12)c1cccs1
EC50: 443 nM

O=C(c1ccc(Cl)cc1)N1CCN(c2ccnc3cc(Cl)ccc23)CC1
EC50: 863 nM

COc1ccc2c(c1)/C(=C/c1cnc[nH]1)C(=O)N2
EC50: 1250 nM

O=[N+]([O-])c1ccc(C2CCCC/C2=N/OCc2ccc(F)cc2)c([N+](=O)[O-])c1 (stereo unspecified)
EC50: > 16000 nM (inactive)

O=C(c1ccccc1)c1ccc2nc(-c3ccc(NC(=O)c4ccccc4Br)cc3)[nH]c2c1
EC50: 377 nM

Cc1ccc(NC(=O)NC2CCCCCCC2)c(C)c1
EC50: > 16000 nM (inactive)

Cc1cc(C)c(-c2cc(NC(=O)COC(=O)c3ccc(C#N)cc3)n(-c3ccccc3)n2)cc1C
EC50: 397 nM

COCC(=O)Nc1nc2n(n1)C(c1ccccc1Cl)CC(c1ccc(OC)cc1)N2 (stereo unspecified)
EC50: > 16000 nM (inactive)

CN(C)c1ccc(/C=C/c2ccc3ccccc3[n+]2C)cc1
EC50: 370 nM

CCOc1ccc2nc(NC(=S)N(C)C)sc2c1
EC50: 1220 nM

CC(=O)NNC(=S)NC(=O)C(c1ccccc1)c1ccccc1
EC50: 3190 nM

CCN(CC)c1ccc(/C=C/c2cccc[n+]2C)c(OC)c1
EC50: 1230 nM

CC(=O)O/N=C/c1c(N2CCOCC2)n(C)c2ccccc12
EC50: 403 nM

Cc1ccc(/C=N/NC(=O)c2c(-c3ccccc3)noc2C)c(O)c1
EC50: 6160 nM

C=CCOc1ccc(/C=C2\SC(=S)N(NS(=O)(=O)c3ccc(C)cc3)C2=O)cc1
EC50: 3290 nM

O=C1NC(=O)/C(=C/c2ccccc2Oc2ccc(Cl)cc2)S1
EC50: > 16000 nM (inactive)

O=[N+]([O-])c1cc(Cl)c(O)c2ncccc12
EC50: 344 nM

COc1cc(C(=O)NC(=S)N(CCc2ccccc2)CCc2ccccc2)cc(OC)c1OC
EC50: 1820 nM

CC(=O)c1ccc(NC(=O)Nc2cccc3ccccc23)cc1
EC50: > 15000 nM (inactive)

Cc1noc2ncnc(Sc3ccc(Br)cc3)c12
EC50: 2640 nM

CN(C)S(=O)(=O)c1cccc(NC(=S)N/N=C/c2ccc(O)c(O)c2O)c1
EC50: 2670 nM

Clc1ccccc1C(c1ccccc1)(c1ccccc1)n1ccnc1
EC50: 133 nM

CCCNC(=O)c1ccc2c(=O)c(O)c(-c3ccc(OC)cc3)[nH]c2c1
EC50: 2470 nM

Cc1ccc2nc(Cl)c3nnnn3c2c1
EC50: 230 nM

OCCCNc1cc(-c2ccnc(Nc3cccc(Cl)c3)n2)ccn1
EC50: 939 nM

O=C(CC(NCCN1CCOCC1)C(=O)O)Nc1cccc(Cl)c1 (stereo unspecified)
EC50: > 16000 nM (inactive)

COC(=O)c1cc(C)sc1NC(=O)c1cccnc1
EC50: 5890 nM

O=C1C2CCN(CC2)C1Cc1ccc(OCc2ccccc2)cc1 (stereo unspecified)
EC50: 2190 nM

N#C/C(=N/Nc1ccc(OC(F)(F)F)cc1)C(N)=S
EC50: > 15000 nM (inactive)

CCCOc1ccc(C(=O)NNC(=S)NC(C)=O)cc1
EC50: 1670 nM

Cc1oc2c(F)c(F)c(F)c(F)c2c1S(=O)(=O)Nc1cccc(C(F)(F)F)c1
EC50: 1490 nM

COc1cc(C(=O)Oc2c(CN3CCOCC3)cc(Cl)c3cccnc23)cc(OC)c1OC
EC50: 2740 nM

CCc1ccc(/C=C/C(=O)c2cc(Br)ccc(=O)c2O)cc1
EC50: 833 nM

Cn1c(NN)nc2sc3c(c2c1=O)CCC3
EC50: 10100 nM

Cc1nc(NS(=O)(=O)c2ccc(Br)cc2)c2c3c(sc2n1)CCC3
EC50: > 16000 nM (inactive)

C/C(=N/NC(=O)c1cc(O)c(O)c(O)c1)c1ccc([N+](=O)[O-])cc1
EC50: 4810 nM

CN1CCN(C(=O)c2cnn(-c3ccccc3)c2NC(=O)c2ccccc2)CC1
EC50: > 15000 nM (inactive)

COc1ccccc1NC(c1cccnc1)c1ccc2cccnc2c1O (stereo unspecified)
EC50: 14900 nM

CC[n+]1c(/C=C/N(C)c2ccccc2)oc2ccccc21
EC50: 7620 nM

Cc1cc(-c2cc(C(=O)O)c3ccccc3n2)c(C)s1
EC50: 2270 nM

Cc1c(O)cc2n(c1=O)-c1ccc(Cl)cc1C2(C)C
EC50: 332 nM

Clc1ccc(OCCn2ccnc2)c2ccccc12
EC50: 2910 nM

COc1ccc(C(=O)NNC(=S)NC(=O)c2cccc([N+](=O)[O-])c2)cc1
EC50: 1800 nM

CCOC(=O)c1c(NC(=O)C2Cc3ccccc3C(=O)O2)sc2c1CCCC2 (stereo unspecified)
EC50: > 16000 nM (inactive)

COCc1nnc(NC(=O)c2ccc(S(=O)(=O)N3CCCCCC3)cc2)o1
EC50: 12900 nM

CC(C)C(=O)NC(c1ccco1)c1ccc2cccnc2c1O (stereo unspecified)
EC50: 1940 nM

O=C(N/N=C/c1ccc(O)c(O)c1O)/C(=C/c1ccc([N+](=O)[O-])cc1)NC(=O)c1ccccc1
EC50: 807 nM

COc1ccc(NC(=O)Nc2nc3c(s2)CCCC3)cc1
EC50: 2740 nM

COc1ccc(-c2csc(N(CC3CCCO3)C(=O)c3ccco3)n2)cc1 (stereo unspecified)
EC50: > 16000 nM (inactive)

CCOc1cc(/C=C(\C#N)C(=O)NCC2CCCO2)ccc1OCC(N)=O (stereo unspecified)
EC50: > 16000 nM (inactive)

CC(=O)NC1CCCN(O)C(=O)/C=C(\C)CCOC(=O)C(NC(C)=O)CCCN(O)C(=O)/C=C(\C)CCOC(=O)C(NC(C)=O)CCCN(O)C(=O)/C=C(\C)CCOC1=O (stereo unspecified)
EC50: 783 nM

COc1cccc(/C=N/Nc2cc(C)nc(-c3ccccc3O)n2)c1O
EC50: < 120 nM

CCCOC(=O)/C(=C\c1ccc([N+](=O)[O-])o1)NC(=O)c1ccccc1
EC50: > 16000 nM (inactive)

C=C(C)CSc1[nH]c(=O)cc(C)c1C#N
EC50: 1250 nM

CC(C)c1ccc2oc(-c3ccc(NC(=O)c4ncn[nH]4)cc3)nc2c1
EC50: > 16000 nM (inactive)

CS/C(=N\S(=O)(=O)c1cccs1)Nc1ccc(Br)cc1F
EC50: 801 nM

Cc1scc(C(=O)N/N=C/c2ccc([N+](=O)[O-])o2)c1C
EC50: 884 nM

O=C(Nc1nc(-c2ccccn2)cs1)c1ccc(Br)s1
EC50: 1000 nM

CCC(Oc1ccccc1)C(=O)Nc1ncc([N+](=O)[O-])s1 (stereo unspecified)
EC50: > 16000 nM (inactive)

CCn1c(=O)c(C(=O)NCc2cccnc2)c(O)c2ccccc21
EC50: 9520 nM

Cc1ccc(-n2ncc(Br)c(Br)c2=O)cc1
EC50: 855 nM

COc1ccc(C(=O)N/N=C(\Cc2ncc[nH]2)c2ccccc2)cc1
EC50: > 16000 nM (inactive)

Cc1cc(Cl)ccc1OCc1cn2cccnc2n1
EC50: 5340 nM

Oc1ccc(Br)cc1/C=N/Nc1ccccn1
EC50: 2590 nM

CC(c1ccc(Cl)cc1)n1c(-c2ccc3ccccc3n2)n[nH]c1=S (stereo unspecified)
EC50: 5260 nM

O=C(C[n+]1ccccc1)N/N=C/c1cccs1
EC50: > 15000 nM (inactive)

Source: PubChem BioAssay AID2423 (Broad Institute, 2010)
